In ChEMBL document CHEMBL3784917, “Recent Progress in Histone Demethylase Inhibitors” (J Med Chem, 2016):

Assays:
[1] = target: Lysine-specific demethylase 6A (Homo sapiens, UniProt O15550)
[2] = target: T1, Lysine-specific demethylase 2B (Homo sapiens, UniProt Q8NHM5); assay: biochemical
T1 sequence (Q8NHM5 whole entry): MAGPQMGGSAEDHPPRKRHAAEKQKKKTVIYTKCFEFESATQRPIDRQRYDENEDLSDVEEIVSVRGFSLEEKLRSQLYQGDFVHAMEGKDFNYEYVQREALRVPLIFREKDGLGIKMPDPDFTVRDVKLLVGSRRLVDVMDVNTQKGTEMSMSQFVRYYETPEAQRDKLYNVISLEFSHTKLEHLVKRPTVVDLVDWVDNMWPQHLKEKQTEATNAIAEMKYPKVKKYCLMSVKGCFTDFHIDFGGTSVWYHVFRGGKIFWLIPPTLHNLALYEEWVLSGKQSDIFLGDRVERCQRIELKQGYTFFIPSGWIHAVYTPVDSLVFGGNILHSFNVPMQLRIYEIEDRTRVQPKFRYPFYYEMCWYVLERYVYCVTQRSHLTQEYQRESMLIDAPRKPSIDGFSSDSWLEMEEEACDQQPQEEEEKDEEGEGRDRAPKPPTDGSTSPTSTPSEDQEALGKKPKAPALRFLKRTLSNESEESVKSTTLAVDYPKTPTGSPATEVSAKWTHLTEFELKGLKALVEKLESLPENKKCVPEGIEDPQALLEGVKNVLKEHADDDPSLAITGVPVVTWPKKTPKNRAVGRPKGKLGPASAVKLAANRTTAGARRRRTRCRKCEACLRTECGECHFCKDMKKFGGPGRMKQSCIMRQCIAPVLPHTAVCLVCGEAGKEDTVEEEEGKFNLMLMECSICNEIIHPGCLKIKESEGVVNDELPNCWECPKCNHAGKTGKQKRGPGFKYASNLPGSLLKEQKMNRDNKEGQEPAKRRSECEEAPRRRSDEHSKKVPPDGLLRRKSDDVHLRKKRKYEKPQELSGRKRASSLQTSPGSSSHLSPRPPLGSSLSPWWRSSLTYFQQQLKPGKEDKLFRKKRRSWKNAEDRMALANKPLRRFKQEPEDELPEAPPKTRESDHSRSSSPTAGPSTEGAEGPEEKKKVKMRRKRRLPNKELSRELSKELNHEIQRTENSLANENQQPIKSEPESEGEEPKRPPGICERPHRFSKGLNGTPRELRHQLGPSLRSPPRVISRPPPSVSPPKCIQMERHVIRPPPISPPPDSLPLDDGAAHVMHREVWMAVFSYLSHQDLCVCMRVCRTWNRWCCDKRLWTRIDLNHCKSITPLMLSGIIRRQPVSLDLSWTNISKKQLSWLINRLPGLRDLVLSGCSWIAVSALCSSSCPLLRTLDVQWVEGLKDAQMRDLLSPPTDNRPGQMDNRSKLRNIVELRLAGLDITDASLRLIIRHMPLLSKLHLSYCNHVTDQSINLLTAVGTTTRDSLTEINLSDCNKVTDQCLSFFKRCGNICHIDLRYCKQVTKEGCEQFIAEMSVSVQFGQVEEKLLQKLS

[3] = target: T2, Lysine-specific demethylase 5B (Homo sapiens, UniProt Q9UGL1)
[4] = target: T2, Lysine-specific demethylase 5B; remark: listed apart in the source
[5] = target: T3, Lysine-specific demethylase 5A (Homo sapiens, UniProt P29375)
[6] = target: T1, Lysine-specific demethylase 2B; assay: biochemical; remark: listed apart in the source
[7] = target: T4, Lysine-specific demethylase 4C (Homo sapiens, UniProt Q9H3R0); assay: biochemical
T4 sequence (Q9H3R0 whole entry): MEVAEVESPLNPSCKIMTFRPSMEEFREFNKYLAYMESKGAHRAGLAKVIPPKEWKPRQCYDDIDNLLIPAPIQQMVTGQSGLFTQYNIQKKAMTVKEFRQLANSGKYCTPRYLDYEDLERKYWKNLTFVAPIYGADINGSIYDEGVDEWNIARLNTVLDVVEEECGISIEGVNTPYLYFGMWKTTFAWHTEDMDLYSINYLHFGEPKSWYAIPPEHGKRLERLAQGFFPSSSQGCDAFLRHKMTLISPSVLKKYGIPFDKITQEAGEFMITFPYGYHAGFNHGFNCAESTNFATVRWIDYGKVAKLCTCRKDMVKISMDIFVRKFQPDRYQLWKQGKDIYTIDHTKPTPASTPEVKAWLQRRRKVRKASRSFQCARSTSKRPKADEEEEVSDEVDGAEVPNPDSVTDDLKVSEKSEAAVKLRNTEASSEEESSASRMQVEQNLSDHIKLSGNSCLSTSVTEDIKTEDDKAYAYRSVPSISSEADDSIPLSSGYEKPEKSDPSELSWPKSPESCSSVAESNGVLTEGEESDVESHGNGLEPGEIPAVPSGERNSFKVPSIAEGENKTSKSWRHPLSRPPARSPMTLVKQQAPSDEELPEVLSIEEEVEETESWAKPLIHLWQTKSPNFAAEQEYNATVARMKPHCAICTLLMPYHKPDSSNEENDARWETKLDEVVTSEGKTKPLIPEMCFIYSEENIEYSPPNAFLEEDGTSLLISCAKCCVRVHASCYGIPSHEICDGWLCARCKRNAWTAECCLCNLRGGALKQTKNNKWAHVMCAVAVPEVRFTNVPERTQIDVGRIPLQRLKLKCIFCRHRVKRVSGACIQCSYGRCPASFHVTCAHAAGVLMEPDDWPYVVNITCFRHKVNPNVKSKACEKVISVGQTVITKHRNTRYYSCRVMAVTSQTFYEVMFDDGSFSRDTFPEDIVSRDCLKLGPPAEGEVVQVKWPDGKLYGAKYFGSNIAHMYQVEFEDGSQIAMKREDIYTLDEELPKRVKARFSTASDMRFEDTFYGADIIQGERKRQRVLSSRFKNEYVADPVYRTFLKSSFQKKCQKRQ

[8] = target: T3, Lysine-specific demethylase 5A; assay: biochemical
[9] = target: T5, Lysine-specific demethylase 4A (Homo sapiens, UniProt O75164)
T5 sequence (O75164 whole entry): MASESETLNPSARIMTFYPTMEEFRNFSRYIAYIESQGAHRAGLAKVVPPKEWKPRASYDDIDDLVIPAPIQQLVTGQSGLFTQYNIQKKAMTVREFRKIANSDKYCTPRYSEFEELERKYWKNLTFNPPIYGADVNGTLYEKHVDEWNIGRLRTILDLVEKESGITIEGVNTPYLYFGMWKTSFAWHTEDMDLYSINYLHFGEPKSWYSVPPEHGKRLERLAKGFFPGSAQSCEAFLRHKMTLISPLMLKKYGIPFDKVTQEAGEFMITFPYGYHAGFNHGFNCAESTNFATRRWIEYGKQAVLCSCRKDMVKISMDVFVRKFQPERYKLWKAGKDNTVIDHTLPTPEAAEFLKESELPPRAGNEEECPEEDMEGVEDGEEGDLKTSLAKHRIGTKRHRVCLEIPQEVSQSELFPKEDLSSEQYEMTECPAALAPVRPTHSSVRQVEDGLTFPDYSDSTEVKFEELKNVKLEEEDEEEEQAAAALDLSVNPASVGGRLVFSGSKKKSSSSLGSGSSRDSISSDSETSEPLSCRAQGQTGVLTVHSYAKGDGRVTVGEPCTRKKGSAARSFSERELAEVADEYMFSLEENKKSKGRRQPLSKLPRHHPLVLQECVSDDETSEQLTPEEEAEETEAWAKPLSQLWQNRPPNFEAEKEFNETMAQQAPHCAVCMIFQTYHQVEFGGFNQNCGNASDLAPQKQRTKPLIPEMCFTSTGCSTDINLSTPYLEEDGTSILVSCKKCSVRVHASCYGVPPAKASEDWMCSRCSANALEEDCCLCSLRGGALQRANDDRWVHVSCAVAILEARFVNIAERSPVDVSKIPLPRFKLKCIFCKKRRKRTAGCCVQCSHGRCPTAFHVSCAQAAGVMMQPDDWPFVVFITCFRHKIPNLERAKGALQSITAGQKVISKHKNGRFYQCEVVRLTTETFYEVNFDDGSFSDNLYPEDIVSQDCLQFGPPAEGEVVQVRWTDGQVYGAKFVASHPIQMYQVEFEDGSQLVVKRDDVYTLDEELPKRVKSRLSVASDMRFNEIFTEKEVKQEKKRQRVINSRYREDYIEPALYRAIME

[10] = target: T2, Lysine-specific demethylase 5B; assay: biochemical
[11] = target: Lysine-specific histone demethylase 1A (Homo sapiens, UniProt O60341)
[12] = cells; conditions: Homo sapiens, KYSE-150, 168 h
[13] = target: T4, Lysine-specific demethylase 4C

T2 sequence (Q9UGL1 whole entry): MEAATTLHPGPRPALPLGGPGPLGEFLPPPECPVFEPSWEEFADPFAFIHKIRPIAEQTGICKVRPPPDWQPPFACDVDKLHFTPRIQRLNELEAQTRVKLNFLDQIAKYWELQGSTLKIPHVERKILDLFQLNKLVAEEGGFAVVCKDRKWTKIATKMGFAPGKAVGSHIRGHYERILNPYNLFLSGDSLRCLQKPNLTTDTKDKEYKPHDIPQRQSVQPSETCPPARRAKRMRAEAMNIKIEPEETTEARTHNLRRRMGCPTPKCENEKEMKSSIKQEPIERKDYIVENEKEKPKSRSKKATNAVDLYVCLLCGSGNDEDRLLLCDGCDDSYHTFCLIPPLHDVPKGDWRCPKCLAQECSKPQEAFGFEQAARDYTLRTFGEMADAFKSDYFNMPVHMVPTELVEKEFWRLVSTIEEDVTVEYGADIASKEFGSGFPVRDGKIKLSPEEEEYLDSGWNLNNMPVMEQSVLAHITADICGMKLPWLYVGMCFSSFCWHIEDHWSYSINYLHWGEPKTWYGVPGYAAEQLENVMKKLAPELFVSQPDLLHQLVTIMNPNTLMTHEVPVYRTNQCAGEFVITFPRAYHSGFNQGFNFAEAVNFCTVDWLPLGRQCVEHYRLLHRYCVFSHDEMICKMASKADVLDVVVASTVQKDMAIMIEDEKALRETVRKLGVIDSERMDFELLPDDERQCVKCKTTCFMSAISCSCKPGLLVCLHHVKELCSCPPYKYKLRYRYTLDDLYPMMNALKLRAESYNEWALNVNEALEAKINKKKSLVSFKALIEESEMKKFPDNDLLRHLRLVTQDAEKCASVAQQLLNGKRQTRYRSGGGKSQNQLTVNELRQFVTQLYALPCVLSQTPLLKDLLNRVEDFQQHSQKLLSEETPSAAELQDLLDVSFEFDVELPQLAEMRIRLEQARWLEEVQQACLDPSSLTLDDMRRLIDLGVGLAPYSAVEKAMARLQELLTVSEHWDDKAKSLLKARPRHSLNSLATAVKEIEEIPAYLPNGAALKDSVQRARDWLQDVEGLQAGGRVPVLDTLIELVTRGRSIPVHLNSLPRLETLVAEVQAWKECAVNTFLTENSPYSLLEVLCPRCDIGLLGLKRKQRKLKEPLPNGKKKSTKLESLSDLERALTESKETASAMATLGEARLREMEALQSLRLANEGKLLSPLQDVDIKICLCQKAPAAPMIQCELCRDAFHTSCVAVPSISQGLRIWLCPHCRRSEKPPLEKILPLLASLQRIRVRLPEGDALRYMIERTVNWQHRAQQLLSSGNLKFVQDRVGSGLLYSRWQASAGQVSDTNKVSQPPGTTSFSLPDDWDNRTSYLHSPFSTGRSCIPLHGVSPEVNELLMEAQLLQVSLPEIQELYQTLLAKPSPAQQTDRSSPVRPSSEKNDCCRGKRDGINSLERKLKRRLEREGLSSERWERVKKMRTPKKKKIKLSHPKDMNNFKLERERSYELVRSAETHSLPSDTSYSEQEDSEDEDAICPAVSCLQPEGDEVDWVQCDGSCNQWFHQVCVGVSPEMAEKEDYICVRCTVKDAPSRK
T3 sequence (P29375 whole entry): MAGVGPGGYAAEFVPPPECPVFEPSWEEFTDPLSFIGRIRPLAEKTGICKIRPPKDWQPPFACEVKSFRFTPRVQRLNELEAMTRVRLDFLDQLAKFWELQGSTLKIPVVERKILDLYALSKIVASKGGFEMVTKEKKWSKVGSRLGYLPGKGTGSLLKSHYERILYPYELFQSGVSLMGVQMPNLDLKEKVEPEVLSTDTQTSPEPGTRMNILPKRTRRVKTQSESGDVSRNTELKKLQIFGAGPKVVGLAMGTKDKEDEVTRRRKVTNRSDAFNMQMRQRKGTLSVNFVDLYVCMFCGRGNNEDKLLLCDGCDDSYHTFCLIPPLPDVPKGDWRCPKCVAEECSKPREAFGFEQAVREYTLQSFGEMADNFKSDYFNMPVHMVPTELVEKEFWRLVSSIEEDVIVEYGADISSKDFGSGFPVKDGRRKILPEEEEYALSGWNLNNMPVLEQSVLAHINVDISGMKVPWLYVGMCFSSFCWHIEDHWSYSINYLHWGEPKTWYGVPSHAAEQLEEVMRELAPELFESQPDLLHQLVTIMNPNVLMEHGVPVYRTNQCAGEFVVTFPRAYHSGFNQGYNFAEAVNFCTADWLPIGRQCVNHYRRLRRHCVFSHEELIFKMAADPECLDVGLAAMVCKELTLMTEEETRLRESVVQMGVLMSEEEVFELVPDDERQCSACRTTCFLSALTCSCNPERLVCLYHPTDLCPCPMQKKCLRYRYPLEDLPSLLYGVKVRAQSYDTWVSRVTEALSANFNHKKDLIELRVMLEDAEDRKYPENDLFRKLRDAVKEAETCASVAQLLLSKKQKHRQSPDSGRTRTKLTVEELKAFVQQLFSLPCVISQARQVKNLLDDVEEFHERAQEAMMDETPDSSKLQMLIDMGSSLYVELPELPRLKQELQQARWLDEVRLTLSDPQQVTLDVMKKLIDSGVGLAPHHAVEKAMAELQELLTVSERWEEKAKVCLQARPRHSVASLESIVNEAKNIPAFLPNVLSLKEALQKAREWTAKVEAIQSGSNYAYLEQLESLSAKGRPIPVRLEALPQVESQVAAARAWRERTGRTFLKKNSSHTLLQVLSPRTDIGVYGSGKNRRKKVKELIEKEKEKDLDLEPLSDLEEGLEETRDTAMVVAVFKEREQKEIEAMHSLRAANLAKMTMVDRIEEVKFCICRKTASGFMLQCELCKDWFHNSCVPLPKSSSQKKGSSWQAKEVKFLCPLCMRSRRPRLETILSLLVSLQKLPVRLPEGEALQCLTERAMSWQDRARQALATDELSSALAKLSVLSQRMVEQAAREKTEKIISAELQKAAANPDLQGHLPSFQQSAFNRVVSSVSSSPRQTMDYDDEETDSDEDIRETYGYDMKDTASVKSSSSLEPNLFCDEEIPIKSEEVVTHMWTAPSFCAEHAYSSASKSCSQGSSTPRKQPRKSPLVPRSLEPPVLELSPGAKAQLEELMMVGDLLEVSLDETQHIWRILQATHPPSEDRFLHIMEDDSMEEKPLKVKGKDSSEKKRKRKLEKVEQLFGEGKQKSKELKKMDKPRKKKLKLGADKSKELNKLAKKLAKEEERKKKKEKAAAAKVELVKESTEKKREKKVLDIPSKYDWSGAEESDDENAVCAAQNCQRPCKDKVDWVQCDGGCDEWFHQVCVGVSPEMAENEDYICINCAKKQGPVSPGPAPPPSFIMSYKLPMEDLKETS
Chain of Lysine-specific demethylase 6A (O15550 whole entry): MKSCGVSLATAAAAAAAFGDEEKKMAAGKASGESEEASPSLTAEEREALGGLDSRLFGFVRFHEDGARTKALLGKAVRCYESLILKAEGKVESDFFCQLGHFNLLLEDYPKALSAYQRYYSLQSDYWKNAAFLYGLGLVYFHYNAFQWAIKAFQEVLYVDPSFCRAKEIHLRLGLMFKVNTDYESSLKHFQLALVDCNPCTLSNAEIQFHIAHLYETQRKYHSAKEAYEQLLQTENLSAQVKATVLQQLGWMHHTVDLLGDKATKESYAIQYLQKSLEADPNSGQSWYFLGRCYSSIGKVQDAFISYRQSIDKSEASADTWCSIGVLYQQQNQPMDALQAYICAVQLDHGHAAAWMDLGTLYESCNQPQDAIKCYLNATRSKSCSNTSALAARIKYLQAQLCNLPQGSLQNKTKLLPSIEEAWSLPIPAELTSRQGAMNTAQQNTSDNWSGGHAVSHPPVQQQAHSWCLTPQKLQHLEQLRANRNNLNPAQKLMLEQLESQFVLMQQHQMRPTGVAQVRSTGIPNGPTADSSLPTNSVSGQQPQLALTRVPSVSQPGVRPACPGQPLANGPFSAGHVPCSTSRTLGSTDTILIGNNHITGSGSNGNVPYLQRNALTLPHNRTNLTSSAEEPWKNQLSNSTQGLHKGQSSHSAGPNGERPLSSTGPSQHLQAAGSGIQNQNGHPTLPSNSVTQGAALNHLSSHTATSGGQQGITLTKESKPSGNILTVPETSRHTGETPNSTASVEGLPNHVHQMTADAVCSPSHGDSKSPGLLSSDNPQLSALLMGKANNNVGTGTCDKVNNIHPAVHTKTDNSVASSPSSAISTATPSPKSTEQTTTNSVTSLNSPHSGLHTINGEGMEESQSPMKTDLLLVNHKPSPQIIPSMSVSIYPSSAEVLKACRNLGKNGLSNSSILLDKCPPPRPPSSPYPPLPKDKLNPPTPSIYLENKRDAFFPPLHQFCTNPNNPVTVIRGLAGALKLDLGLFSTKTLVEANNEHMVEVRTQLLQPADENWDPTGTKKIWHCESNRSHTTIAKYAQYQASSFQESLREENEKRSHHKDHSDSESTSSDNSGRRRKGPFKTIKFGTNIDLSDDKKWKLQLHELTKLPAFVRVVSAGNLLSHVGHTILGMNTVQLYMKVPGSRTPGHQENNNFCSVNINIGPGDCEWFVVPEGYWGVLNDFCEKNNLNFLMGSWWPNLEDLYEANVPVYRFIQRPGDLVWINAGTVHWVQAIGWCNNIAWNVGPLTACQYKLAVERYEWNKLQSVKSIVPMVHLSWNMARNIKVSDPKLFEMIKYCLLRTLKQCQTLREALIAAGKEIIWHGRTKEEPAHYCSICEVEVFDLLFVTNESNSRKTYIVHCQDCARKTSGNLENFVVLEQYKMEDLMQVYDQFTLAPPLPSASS

| Compound | IC50 [4] | IC50 [5] | IC50 [7] | IC50 [8] | IC50 [10] | also measured |
| --- | --- | --- | --- | --- | --- | --- |
| CCN1CCC[C@H](CNCc2cc(C(=O)O)ccn2)C1=O | – | – | – | – | – | IC50 [1]: > 2500 nM; IC50 [2]: < 250 nM; IC50 [3]: < 250 nM |
| Cn1cnc(-c2cc(-c3nn[nH]n3)ccn2)c1 | > 10000 nM | > 10000 nM | > 10000 nM | 100 nM | 100 nM | IC50 [6]: < 100 nM; IC50 [9]: > 10000 nM |
| COC(=O)c1ccnc(-n2nccc2OCc2ccc(Cl)cc2)c1 | 100 nM | 100 nM | – | – | – | – |
| COc1cc(COc2cc3nccc(C(=O)O)c3[nH]2)ccc1Cl | – | – | < 100 nM | 1000 nM | 1000 nM | IC50 [9]: 100 nM |
| Nc1ccnc(N2CCC(N[C@@H]3C[C@H]3c3ccccc3)CC2)n1 | – | – | – | – | – | IC50 [11]: < 100 nM |
| O=C(O)CC1(N2CCC(N[C@@H]3C[C@H]3c3ccccc3)CC2)CN(CCC(F)(F)F)C1 | – | – | – | – | – | IC50 [11]: < 100 nM |
| Cc1cc(Cl)ccc1COc1ccnn1-c1cc(C(=O)O)ccn1 | < 100 nM | < 100 nM | 100 nM | < 100 nM | < 100 nM | IC50 [6]: 100 nM |
| COC1(CN[C@@H]2C[C@H]2c2ccccc2)CCN(S(=O)(=O)c2ccn(C)n2)CC1 | – | – | – | – | – | IC50 [11]: < 100 nM |
| CC(C)Cn1nc(Nc2cnccc2C(=O)NC#N)c2cc(F)ccc21 | – | – | 1000 nM | < 100 nM | < 100 nM | – |
| O=C(O)c1ccncc1NCC12CC3CC(CC(C3)C1)C2 | – | – | < 100 nM | 100 nM | 100 nM | IC50 [12]: > 10000 nM |
| O=C(O)c1ccnc2cc(OCc3ccc(Cl)c(OCC4CC4)c3)[nH]c12 | – | – | < 100 nM | 100 nM | < 100 nM | IC50 [9]: 1000 nM |
| O=C(O)c1ccnc(-n2nccc2OCc2ccc(Cl)cc2)c1 | 100 nM | 100 nM | < 100 nM | < 100 nM | < 100 nM | – |
| O=C(O)c1ccnc(-n2ncc(CCO)c2OCc2ccc(F)cc2)c1 | – | – | 1000 nM | < 100 nM | < 100 nM | – |
| O=C(O)c1ccncc1Nc1nn(C2CCCC2)c2ccc(F)cc12 | 100 nM | 100 nM | 100 nM | < 100 nM | < 100 nM | – |
| CNC(=O)c1ccnc2cc(OCc3ccc(Cl)c(OC(F)(F)F)c3)[nH]c12 | – | – | – | – | – | IC50 [12]: < 100 nM |
| O=C(O)c1cnnc(CNCC(=O)N2CCCCC2)c1 | – | – | – | – | – | IC50 [1]: > 2500 nM; IC50 [13]: < 250 nM; IC50 [3]: < 250 nM |
| O=C(O)c1ccnc(CNCc2nccn2C/C=C/c2ccccc2)c1 | – | – | – | – | – | IC50 [1]: > 2500 nM; IC50 [13]: > 2500 nM; IC50 [3]: < 250 nM |
| COC(=O)c1ccnc2cc(OCc3ccc(Cl)c(OC(F)(F)F)c3)[nH]c12 | – | – | – | – | – | IC50 [12]: < 100 nM |
| COC(=O)c1ccnc2cc(OCc3ccc(Cl)c(OCC4CC4)c3)[nH]c12 | – | – | – | – | – | IC50 [12]: < 100 nM |
| O=C(O)c1ccnc2cc(OCc3ccc(Cl)c(OC(F)(F)F)c3)[nH]c12 | – | – | < 100 nM | 100 nM | < 100 nM | IC50 [9]: 100 nM |
| COC(=O)c1ccnc2cc(OCc3ccc(Cl)c(OC)c3)[nH]c12 | – | – | – | – | – | IC50 [12]: < 100 nM |
| COc1ccc(-c2c(-c3cc(C(=O)O)ccn3)ncn2C)cc1 | 1000 nM | 1000 nM | 1000 nM | 100 nM | 100 nM | IC50 [6]: 100 nM |
| CN(C)CC(=O)N1CCC(CN[C@@H]2C[C@H]2c2ccccc2)(Cc2cccc(C#N)c2)CC1 | – | – | – | – | – | IC50 [11]: < 100 nM |
| Cn1nc(Nc2cnccc2C(=O)O)c2cccnc21 | 100 nM | 100 nM | 100 nM | < 100 nM | < 100 nM | – |
| Cn1cnc(-c2cc(C(=O)O)ccn2)c1 | > 10000 nM | > 10000 nM | < 100 nM | < 100 nM | < 100 nM | IC50 [6]: < 100 nM; IC50 [9]: < 100 nM |
| Cn1cnc(-c2cc(C(=O)O)ccn2)c1-c1ccc(OCC2CC2)cc1 | 1000 nM | 1000 nM | 100 nM | < 100 nM | < 100 nM | IC50 [6]: 100 nM |
